This series is described as follows: Solubility of redox-active electrolyte species in aqueous electrolyte.

Structures are written as SMILES. Some results are limits rather than exact numbers.

Consider two compounds from patent US10770699B2, “Stable bromine charge storage in porous carbon electrodes using tetraalkylammonium bromides for reversible solid complexation” (The Regents of the University of California, priority 2014, dated 2020).

`CCCCCCC[n+]1ccc(-c2cc[n+](CCCCCCC)cc2)cc1.[Br-].[Br-]` [HV] returned a solubility (aqueous electrolyte) below 200 mM.
As to `CCCCCC[n+]1ccc(-c2cc[n+](CCCCCC)cc2)cc1` [Hexyl viologen], the “solubility in the presence of NaBr” value (aqueous, in the presence of NaBr) was below 500 mM.
